Read-outs that look alike come from different tables or passages of the source. Values belong to the molecule of their own block, whether it stands above or below them.
Assays:
[1] = test system: Alopecurus; test: Post-emergence test, Alopecurus; type: in vivo; settings: post-emergence/greenhouse; 250 g of ai/ha; after three weeks
Procedure: (§1) [table] To produce a suitable preparation of active compound, 1 part by weight of active compound is mixed with the stated amount of solvent, the stated amount of emulsifier is added and the concentrate is diluted with water to the desired concentration. Test plants of a height of 5-15 cm are sprayed with the preparation of active compound such that the particular amounts of active compound desired are applied per unit area. The concentration of the spray liquor is chosen such that the particular amounts of active compound desired are applied in 1000 l of water/ha. After three weeks, the degree of damage to the plants is rated in % damage in comparison to the development of the untreated control. The figures denote: • 0%=no effect (=like untreated control) • 100%=total destruction

[2] = test system: Setaria; test: Pre-emergence test, Setaria; type: in vivo; settings: pre-emergence/greenhouse; 250 g of ai/ha; after three weeks
Procedure: (§2) [table] To produce a suitable preparation of active compound, 1 part by weight of active compound is mixed with the stated amount of solvent, the stated amount of emulsifier is added and the concentrate is diluted with water to the desired concentration. Seeds of the test plants are sown in normal soil. After about 24 hours, the soil is sprayed with the preparation of active compound such that the particular amounts of active compound desired are applied per unit area. The concentration of the spray liquor is chosen such that the particular amounts of active compound desired are applied in 1000 l of water/ha. After three weeks, the degree of damage to the plants is rated in % damage in comparison to the development of the untreated control. The figures denote: • 0%=no effect (like untreated control) • 100%=total destruction

[3] = test system: Alopecurus; test: Pre-emergence test, Alopecurus; type: in vivo; settings: pre-emergence/greenhouse; 250 g of ai/ha; after three weeks
Procedure: as §2

[4] = test system: Echinochloa; test: Pre-emergence test, Echinochloa; type: in vivo; settings: pre-emergence/greenhouse; 250 g of ai/ha; after three weeks
Procedure: as §2

[5] = test system: Sinapis; test: Post-emergence test, Sinapis; type: in vivo; settings: post-emergence/greenhouse; 250 g of ai/ha; after three weeks
Procedure: as §1

[6] = test system: Avena fatua; test: Post-emergence test, Avena fatua; type: in vivo; settings: post-emergence/greenhouse; 250 g of ai/ha; after three weeks
Procedure: as §1

[7] = test system: Avena fatua; test: Pre-emergence test, Avena fatua; type: in vivo; settings: pre-emergence/greenhouse; 250 g of ai/ha; after three weeks
Procedure: as §2

[8] = test system: Setaria; test: Post-emergence test, Setaria; type: in vivo; settings: post-emergence/greenhouse; 250 g of ai/ha; after three weeks
Procedure: as §1

[9] = test system: Echinochloa; test: Post-emergence test, Echinochloa; type: in vivo; settings: post-emergence/greenhouse; 250 g of ai/ha; after three weeks
Procedure: as §1

[10] = test system: Sugar beet; test: Pre-emergence test, Sugar beet; type: in vivo; settings: pre-emergence/greenhouse; 250 g of ai/ha; after three weeks; crop
Procedure: as §2

[11] = test system: Myzus persicae; test: Myzus test (leaf dip, cabbage); type: in vivo; settings: 500 ppm active compound, cabbage leaves dipped
Procedure: (§3) [table] To produce a suitable preparation of active compound, 1 part by weight of active compound is mixed with the stated amounts of solvent and emulsifier, and the concentrate is diluted with emulsifier-containing water to the desired concentration. Cabbage leaves (Brassica oleracea) which are heavily infested by peach aphids (Myzus persicae) are treated by being dipped into the preparation of active compound of the desired concentration. After the desired period of time, the kill in % is determined. 100% means that all aphids have been killed; 0% means that none of the aphids have been killed.

[12] = test system: Tetranychus urticae; test: Tetranychus test (OP-resistant/dip treatment); type: in vivo; settings: 100 ppm active compound, bean plants dipped, OP-resistant
Procedure: [table] To produce a suitable preparation of active compound, 1 part by weight of active compound is mixed with the stated amounts of solvent and emulsifier, and the concentrate is diluted with emulsifier-containing water to the desired concentration. Bean plants (Phaseolus vulgaris) which are heavily infested by all stages of the greenhouse […] spider mite (Tetranychus urticae) are dipped into a preparation of active compound of the desired concentration. After the desired period of time, the activity in % is determined. 100% means that all spider mites have been killed; 0% means that none of the spider mites have been killed.

[13] = test system: Myzus persicae; test: Test for persistency: Myzus persicae (root-systemic action); type: in vivo; settings: 4 ppm in soil, broad beans
Procedure: (§4) [table] To produce a suitable preparation of active compound, 1 part by weight of active compound is mixed with the stated amounts of solvent and emulsifier, and the concentrate is diluted with water to the desired concentration. The preparation of active compound is mixed intimately with the soil. The stated concentration refers to the amount of active compound per volume unit of soil (mg/l). The treated soil is filled into pots, and into these pots is planted pre-germinated broad beans. In this way, the active compound can be taken up from the soil into the roots of the plants and be transported into the leaves. After the stated number of days, peach aphids (Myzus persicae) are, in infection chambers, placed on the leaves. After the desired period of time, the kill in % is determined. 100% means that all aphids have been killed; 0% means that none of the aphids have been killed.

[14] = log P determination; type: physicochemical; settings: pH 2.3, pH 2.3
[15] = test system: Phaedon cochleariae; test: Phaedon larvae test; type: in vivo; settings: 500 ppm active compound, cabbage leaves dipped
Procedure: [table] To produce a suitable preparation of active compound, 1 part by weight of active compound is mixed with the stated amounts of solvent and emulsifier, and the concentrate is diluted with emulsifier-containing water to the desired concentration. Cabbage leaves (Brassica oleracea) are treated by being dipped into the preparation of active compound of the desired concentration and are populated with larvae of the mustard beetle (Phaedon cochleariae) while leaves are still moist. After the desired period of time, the kill in % is determined. 100% means that all beetle larvae have been killed; 0% means that none of the beetle larvae have been killed.

[16] = test system: Meloidogyne incognita; test: Meloidogyne test (gall formation on lettuce roots); type: in vivo; settings: 20 ppm active compound, nematicidal action by gall formation
Procedure: [table] To produce a suitable preparation of active compound, 1 part by weight of active compound is mixed with the stated amounts of solvent and emulsifier, and the concentrate is diluted with water to the desired concentration. Vessels are filled with sand, solution of active compound, Meloidogyne incognita egg/larvae suspension and lettuce seeds. The lettuce seeds germinate and the plants develop. On the roots, galls develop. After the desired period of time, the nematicidal action is determined in % by the formation of galls. 100% means that no galls have been found; 0% means that the number of galls on the treated plants corresponds to that of the untreated control.

[17] = test system: Aphis gossypii; test: Aphis gossypii test (leaf dip, cotton); type: in vivo; settings: 500 ppm active compound, cotton leaves dipped
Procedure: as §3, with “Cotton” for “Cabbage”, “(Gossypium hirsutum)” for “(Brassica oleracea)”, “the cotton” for “peach”, “(Aphis gossypii)” for “(Myzus persicae)”

[18] = test system: Aphis gossypii; test: Test for persistency: Aphis gossypii (root-systemic action); type: in vivo; settings: 4 ppm in soil, cotton
Procedure: as §4, with “cotton at the cotyledon stage.” for “pre-germinated broad beans.”, “cotton” for “peach”, “(Aphis gossypii)” for “(Myzus persicae)”

[19] = test system: Sinapis; test: Pre-emergence test, Sinapis; type: in vivo; settings: pre-emergence/greenhouse; 250 g of ai/ha; after three weeks
Procedure: as §2

Compound: CCc1cc(Cl)cc(Cl)c1C1(Cl)C(=O)NC2(CCC(OC)CC2)C1=O (stereo not drawn) [Ex. I-1-a-46]
- % damage, Alopecurus [1]: 100%
- % damage, Setaria [2]: 100%
- % damage, Alopecurus [3]: 95%
- % damage, Echinochloa [4]: 100%
- % damage, Sinapis [5]: 70%
- % damage, Avena fatua [6]: 100%
- % damage, Avena fatua [7]: 100%
- % damage, Setaria [8]: 100%
- % damage, Echinochloa [9]: 100%
- % damage, Sugar beet [10]: 0%
- Kill rate in % after 6d [11]: 98%

Compound: COC1CCC2(CC1)NC(=O)C(Cl)(c1ccc(C)cc1C(F)(F)F)C2=O (stereo not drawn) [Ex. I-1-a-16]
- Kill rate in % after 7d [12]: 100%

- logP ([14]; read-out: log P (pH 2.3)): 4.07
- logP ([14]; read-out: logP (2.3)): 4.07
Compound: COC1CCC2(CC1)OC(=O)C(Cl)(c1cc(C)c(C)cc1C)C2=O (stereo not drawn) [Ex. I-2-a-1]
- Kill rate in % after 7d ([13]; infection after 7 d): 100%
- Kill rate in % after 7d ([13]; infection after 21 d): 95%
- Kill rate in % after 7d ([13]; infection after 35 d): 0%

Compound: Cc1cc(Br)cc(Cl)c1C1(Cl)C(=O)NC2(CCCOC2)C1=O (stereo not drawn) [Ex. I-1-b-8]
- Kill rate in % after 7d [15]: 100%

Compound: CCc1cc(Cl)c(C2(Cl)C(=O)NC3(CCCOC3)C2=O)c(Br)c1 (stereo not drawn) [Ex. I-1-b-5]
- Kill rate in % after 7d [12]: 90%

Compound: COC1CCC2(CC1)NC(=O)C(Cl)(c1cc(C)ccc1C)C2=O (stereo not drawn) [Ex. I-1-a-2]
- Kill rate in % after 7d [12]: 98%
- Kill rate in % after 14d [16]: 90%
- Kill rate in % after 6d [17]: 95%

Compound: COC1CCC2(CC1)NC(=O)C(Cl)(c1c(Cl)cc(Cl)c(C)c1Cl)C2=O (stereo not drawn) [Ex. I-1-a-27]
- Kill rate in % after 14d [16]: 100%
- Kill rate in % after 6d [11]: 90%

Compound: CCOC1CCC2(CC1)NC(=O)C(Cl)(c1cc(C)ccc1Br)C2=O (stereo not drawn) [Ex. I-1-a-41]
- Kill rate in % after 7d [12]: 95%
- Kill rate in % after 7d [15]: 100%

Compound: COc1cc(C(F)(F)F)cc(Cl)c1C1(Cl)C(=O)NC2(CCC(OC)CC2)C1=O (stereo not drawn) [Ex. I-1-a-5]
- Kill rate in % after 7d [12]: 95%

Compound: Cc1cc(Cl)cc(Cl)c1C1(Cl)C(=O)NC2(CCOC(C)C2)C1=O (stereo not drawn) [Ex. I-1-c-1]
- Kill rate in % after 7d ([13]; infection after 7 d): 100%
- Kill rate in % after 7d ([13]; infection after 21 d): 100%
- Kill rate in % after 7d ([13]; infection after 35 d): 100%
- Kill rate in % after 7d ([18]; infection after 7 d): 99%
- Kill rate in % after 7d ([18]; infection after 21 d): 99^ %
- Kill rate in % after 7d ([18]; infection after 35 d): 98^ %
- Kill rate in % after 6d [17]: 90%

Compound: COC1CCC2(CC1)NC(=O)C(Cl)(c1c(C)cc(Br)cc1C)C2=O (stereo not drawn) [Ex. I-1-a-9]
- % damage, Alopecurus [1]: 95%
- % damage, Setaria [2]: 100%
- % damage, Alopecurus [3]: 100%
- % damage, Echinochloa [4]: 100%
- % damage, Sinapis [5]: 80%
- % damage, Avena fatua [6]: 90%
- % damage, Avena fatua [7]: 80%
- Kill rate in % after 7d [15]: 90%
- % damage, Setaria [8]: 100%
- % damage, Echinochloa [9]: 100%
- % damage, Sinapis [19]: 90%

Reference: US8063096B2, “Spirocyclic 3-phenyl-3substituted-4-ketolactams and-lactones” (Bayer Cropscience AG, priority 2001, dated 2011)
